This is an account of results in patent US20120172453A1, “METHODS FOR TREATING NEURODEGENERATIVE DISEASES” (Coyote Pharmaceuticals, Inc., priority 2010, published 2012).

A word on the EC50: it is the concentration at which the effect is half-maximal.

Data set [1] has as its system Rat primary motor neurons. The experiment in a line: axon extension of rat primary motor neurons. The class given is cell-based. Particulars: Neuron, cells extending axons counted after 72 hrs, values in parenthesis, read-out: reasonable range expected for the EC50. The protocol:
Rat primary motor neurons were isolated from embryonic spinal cords in accordance with the method of Henderson et al.; J Cohen and G P Wilkin (ed.), Neural Cell Culture, (1995) p69-81 which is herein incorporated by reference in its entirety. Briefly, spinal cords were dissected from day 15 embryo (E15) and incubated in a trypsin solution, and followed by DNase treatment to release spinal cord cells from tissue fragments. The cell suspension was centrifuged to remove tissue fragments. Then motor neurons were enriched by density gradient centrifugation.
Motor neurons were cultured in serum-free neurobasal medium containing insulin, forskolin, 3-isobutyl-1-methylxanthine, neurotrophic factors, Bovine serum albumin, selenium, transferrin, putrescine, progesterone and B27 supplement in tissue culture plate coated with poly-ornithine and laminin.
Rat primary motor neurons were prepared and cultured as described Example 11. […] The cells extending axons were counted in five different fields for each treatment after 72 hrs. Percentage of positive cells relative to total cells in the same magnification field was calculated and the results were expressed as means+/− standard deviations, n=5.

Data set [2] deals with Mouse Neuro2A neuroblastoma cells. The experiment in a line: Neuro2A cells with neurites counted after retinoic acid differentiation and GGTI-298. The class given is cell-based. The protocol: Mouse Neuro2A neuroblastoma cells were cultured in DMEM supplemented with 10% FBS for 24 hrs. […] Then differentiation was induced by retinoic acid in DMEM supplemented with 2% FBS. An inhibitor against a G-protein, GGTI-298, was incubated. After 24 hrs incubation, cells with neurites were counted.

SMILES strings stand for the structures.

In the case of `CC(=O)CC/C=C(\C)CC/C=C(\C)CC/C=C(\C)CCC=C(C)C` [CNS-102, 5E,9E,13E-Geranylgeranyl acetone], the half-maximal effective concentration (EC50) in data set [1] lay within 0.5 to 2 nM.

Turning to `CC(=O)CC/C=C(/C)CC/C=C(\C)CC/C=C(\C)CCC=C(C)C` [CNS-103, 5Z,9E,13E-Geranylgeranyl acetone], the EC50 in data set [1] was 8 to 12 nM. The “effect of a large quantity on viability of neuroblastoma cells” value in data set [2] is “inhibited viability of neuroblastoma cells”.
